Converted amounts (≈) assume the structure as drawn. Where two headings read alike, the source gives them in different places.
Key:
E. coli strains = test: CLSI overnight reference method, broth microdilution MIC; type: cell-based; settings: for MIC (CLSI Ref): unit assumed
P. aeruginosa = test: Rapid AST by surface binding of europium probe, time resolved fluorescence; type: cell-based; settings: Pseudomonas aeruginosa
Method: The x-axis of each graph denotes the concentrations of antimicrobial Amikacin (AMK) in micrograms/milliliter, and the y-axis denotes fluorescence from binding to bacteria surface. Growth check data measured by optical density (Absorbance at 600 nm) of the bacterial culture is denoted for each strain.
AST was performed by surface binding of probe followed by time resolved fluorescence. The P. aeruginosa strains were incubated at 35° C. in shaking conditions for 4 hours for attaining growth, and growth check was performed by measuring absorbance of the culture at 600 nm after 4 hours of growth.

[1] = E. coli strain Clinical Sample 1
[2] = E. coli strain Clinical Sample 2
[3] = E. coli strain Clinical Sample 4
[4] = E. coli strain Clinical Sample 5
[5] = E. coli strain Clinical Sample 6
[6] = E. coli strain Clinical Sample 7
[7] = E. coli strain Clinical Sample 8
[8] = E. coli strain Clinical Sample 9
[9] = E. coli strain Clinical Sample 10
[10] = E. coli strain Clinical Sample 11
[11] = E. coli strain Clinical Sample 12
[12] = E. coli strain Clinical Sample 13

| Molecule | MIC (CLSI Ref) (E. coli strains; E. coli strain BEI 4.097) [µg/mL] | MIC (CLSI Ref) (E. coli strains; E. coli strain CDC Carba36) [µg/mL] | MIC (CLSI Ref) (E. coli strains; [1]) [µg/mL] | Interpretation letter (E. coli strains; [2]) | MIC (CLSI Ref) (E. coli strains; [2]) [µg/mL] | MIC (CLSI Ref) (E. coli strains; [3]) [µg/mL] | MIC (CLSI Ref) (E. coli strains; [4]) [µg/mL] | MIC (CLSI Ref) (E. coli strains; [5]) [µg/mL] | MIC (CLSI Ref) (E. coli strains; [6]) [µg/mL] | MIC (CLSI Ref) (E. coli strains; [7]) [µg/mL] | MIC (CLSI Ref) (E. coli strains; [8]) [µg/mL] | MIC (CLSI Ref) (E. coli strains; [9]) [µg/mL] | MIC (CLSI Ref) (E. coli strains; [10]) [µg/mL] | MIC (CLSI Ref) (E. coli strains; [11]) [µg/mL] | MIC (CLSI Ref) (E. coli strains; [12]) [µg/mL] | MIC (P. aeruginosa; P. aeruginosa Strain 1, growth check value 2.18, 4 hours at 35° C., read-out: MIC) [µg/mL] | MIC (P. aeruginosa; P. aeruginosa Strain 2, no reliable MIC at growth checkpoint value 1.13, read-out: expected MIC) [µg/mL] |
| --- | --- | --- | --- | --- | --- | --- | --- | --- | --- | --- | --- | --- | --- | --- | --- | --- | --- |
| CO/N=C(\C(=O)N[C@@H]1C(=O)N2C(C(=O)O)=C(CSc3nc(=O)c(=O)[nH]n3C)CS[C@H]12)c1csc(N)n1 [CRO, Ceftriaxone] | < 0.12 | 1 (≈ 1.8 µM) | < 0.12 | I | 2 (≈ 3.61 µM) | < 0.12 | < 0.12 | < 0.12 | < 0.12 | 64 (≈ 115 µM) | > 64 | < 0.12 | < 0.12 | < 0.12 | < 0.12 | – | – |
| NCC[C@H](O)C(=O)N[C@@H]1C[C@H](N)[C@@H](O[C@H]2O[C@H](CN)[C@@H](O)[C@H](O)[C@H]2O)[C@H](O)[C@H]1O[C@H]1O[C@H](CO)[C@@H](O)[C@H](N)[C@H]1O [AMK, Amikacin] | 4 (≈ 6.83 µM) | 4 (≈ 6.83 µM) | 4 (≈ 6.83 µM) | – | 4 (≈ 6.83 µM) | 4 (≈ 6.83 µM) | 4 (≈ 6.83 µM) | 4 (≈ 6.83 µM) | 2 (≈ 3.42 µM) | 4 (≈ 6.83 µM) | 4 (≈ 6.83 µM) | 8 (≈ 13.7 µM) | 4 (≈ 6.83 µM) | 4 (≈ 6.83 µM) | 4 (≈ 6.83 µM) | 8 (≈ 13.7 µM) | 8 (≈ 13.7 µM) |
| CC(C)(O/N=C(\C(=O)N[C@@H]1C(=O)N2C(C(=O)[O-])=C(C[n+]3ccccc3)CS[C@H]12)c1csc(N)n1)C(=O)O [CAZ, Ceftazidime] | 0.25 (≈ 0.457 µM) | 4 (≈ 7.32 µM) | 0.25 (≈ 0.457 µM) | – | 2 (≈ 3.66 µM) | 0.25 (≈ 0.457 µM) | 0.25 (≈ 0.457 µM) | 0.12 (≈ 0.22 µM) | 0.25 (≈ 0.457 µM) | > 32 | > 32 | 0.12 (≈ 0.22 µM) | 0.25 (≈ 0.457 µM) | 0.12 (≈ 0.22 µM) | 0.12 (≈ 0.22 µM) | – | – |
| Trimethoprim-Sulfamethoxazole [SXT] | < 0.5 | < 0.5 | < 0.5 | R | 4 | > 32 | > 32 | 2 | > 32 | < 0.5 | > 32 | > 32 | < 0.5 | < 0.5 | < 0.5 | – | – |
| C[C@@H](O)[C@H]1C(=O)N2C(C(=O)O)=C(S[C@@H]3CN[C@H](C(=O)Nc4cccc(C(=O)O)c4)C3)[C@H](C)[C@H]12 [ERT, Ertapenem] | 0.008 (≈ 0.0168 µM) | 0.12 (≈ 0.252 µM) | 0.008 (≈ 0.0168 µM) | – | 0.015 (≈ 0.0315 µM) | 0.008 (≈ 0.0168 µM) | 0.008 (≈ 0.0168 µM) | 0.008 (≈ 0.0168 µM) | 0.008 (≈ 0.0168 µM) | 0.25 (≈ 0.526 µM) | 0.12 (≈ 0.252 µM) | 0.008 (≈ 0.0168 µM) | 0.008 (≈ 0.0168 µM) | 0.008 (≈ 0.0168 µM) | 0.016 (≈ 0.0336 µM) | – | – |
| Colistin [CST] | 0.12 | 0.25 | 0.12 | – | 0.12 | 0.25 | 0.25 | 0.12 | 0.12 | 0.12 | 0.5 | 0.25 | 0.5 | 0.25 | 0.25 | – | – |
| CN(C)[C@@H]1C(=O)C(C(N)=O)=C(O)[C@@]2(O)C(=O)C3=C(O)c4c(O)cccc4[C@@](C)(O)[C@H]3C[C@@H]12 [TET, Tetracycline] | 32 (≈ 72 µM) | 8 (≈ 18 µM) | 4 (≈ 9 µM) | R | > 32 | 4 (≈ 9 µM) | > 32 | 2 (≈ 4.5 µM) | 4 (≈ 9 µM) | 8 (≈ 18 µM) | 4 (≈ 9 µM) | 4 (≈ 9 µM) | 4 (≈ 9 µM) | 4 (≈ 9 µM) | 4 (≈ 9 µM) | – | – |
| C[C@@H](O)[C@H]1C(=O)N2C(C(=O)O)=C(S[C@@H]3CN[C@H](C(=O)N(C)C)C3)[C@H](C)[C@H]12 [MEM, Meropenem] | < 0.06 | < 0.06 | < 0.06 | – | < 0.06 | < 0.06 | < 0.06 | < 0.06 | < 0.06 | < 0.06 | < 0.06 | < 0.06 | < 0.06 | < 0.06 | < 0.06 | – | – |
| Penicillin | 16 | > 16 | > 16 | – | > 16 | > 16 | > 16 | 16 | > 16 | > 16 | > 16 | > 16 | > 16 | > 16 | 16 | – | – |
| Piperacillin/tazobactam [TZP] | 4 | 128 | 4 | – | 8 | 4 | 4 | 2 | 4 | 32 | > 128 | 2 | 2 | 2 | 32 | – | – |
| CC1(C)S[C@@H]2[C@H](NC(=O)[C@H](N)c3ccccc3)C(=O)N2[C@H]1C(=O)O [AMP, Ampicillin] | 4 (≈ 11.4 µM) | > 32 | 4 (≈ 11.4 µM) | – | > 32 | > 32 | > 32 | 4 (≈ 11.4 µM) | > 32 | > 32 | > 32 | > 32 | 4 (≈ 11.4 µM) | 4 (≈ 11.4 µM) | > 32 | – | – |
| C[C@H]1[C@H](NC(=O)/C(=N\OC(C)(C)C(=O)O)c2csc(N)n2)C(=O)N1S(=O)(=O)O [ATM, Aztreonam] | < 0.25 | 8 (≈ 18.4 µM) | < 0.25 | – | 0.5 (≈ 1.15 µM) | < 0.25 | < 0.25 | < 0.25 | < 0.25 | 64 (≈ 147 µM) | 32 (≈ 73.5 µM) | < 0.25 | < 0.25 | < 0.25 | < 0.25 | – | – |
| C[C@H]1COc2c(N3CCN(C)CC3)c(F)cc3c(=O)c(C(=O)O)cn1c23 [LVX, Levofloxacin] | < 0.06 | > 8 | < 0.06 | – | < 0.06 | > 8 | > 8 | < 0.06 | < 0.06 | < 0.06 | > 8 | 8 (≈ 22.1 µM) | < 0.06 | 0.5 (≈ 1.38 µM) | < 0.06 | – | – |
| Ampicillin/sulbactam [SAM] | 8 | > 32 | 4 | I | 16 | 16 | 8 | 2 | 16 | 64 | 32 | 16 | 4 | 2 | > 32 | – | – |
| Imipenem/Cilastatin [IPM] | < 0.12 | < 0.12 | < 0.12 | – | < 0.12 | 0.25 | < 0.12 | < 0.12 | < 0.12 | 0.5 | < 0.12 | < 0.12 | 0.25 | < 0.12 | < 0.12 | – | – |
| Gentamycin | 0.5 | 2 | 0.5 | – | 4 | 0.5 | 2 | 0.5 | 0.5 | 1 | 1 | > 16 | 2 | 1 | 1 | – | – |
| NC[C@H]1O[C@H](O[C@H]2[C@H](O)[C@@H](O[C@H]3O[C@H](CO)[C@@H](O)[C@H](N)[C@H]3O)[C@H](N)C[C@@H]2N)[C@H](N)C[C@@H]1O [TOB, Tobramycin] | 1 (≈ 2.14 µM) | 1 (≈ 2.14 µM) | 2 (≈ 4.28 µM) | – | 1 (≈ 2.14 µM) | 1 (≈ 2.14 µM) | 1 (≈ 2.14 µM) | 1 (≈ 2.14 µM) | 1 (≈ 2.14 µM) | 2 (≈ 4.28 µM) | 4 (≈ 8.56 µM) | 16 (≈ 34.2 µM) | 1 (≈ 2.14 µM) | 1 (≈ 2.14 µM) | 1 (≈ 2.14 µM) | – | – |

Reference: patent US12203124B2, “Methods for improved rapid antimicrobial susceptibility testing” (priority 2016, dated 2025)
